Source: the supplement of paper PMC6045584
± gives the standard deviation of the averaged measurements.

Each test system was assayed with O=c1[nH]cc(F)c(=O)[nH]1 [FLUOROURACIL] (assay: surviving fraction relative to DMSO-only wells; higher = less growth inhibition). Settings: 0.5 nM; exposure time: 5 days.
Procedure, shortened: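 Tumour cell lines in log phase were plated in 384-well plates at 250–500 cells per well, then, after 24 hours, exposed continuously for five days to inhibitors at 0.5, 1, 5, 10, 50, 100, 500 and 1000 nM. Viability came from CellTiter-Glo luminescence, and surviving fraction is that signal normalised to the median of DMSO-only wells. Plates were read after 10 minutes at room temperature, and each line, screened three times, was kept only when replicate Pearson r was >0.7 and median Z' was >0.3.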

SCC36 HEADNECK and OS25HAL BONE are within error of each other in surviving fraction: 0.92 ± 0.093 for the first, 1 ± 0.062 for the second.

HCC1806 BREAST and HU09 BONE are within error of each other in surviving fraction: 1.1 ± 0.028 for the first, 1.06 ± 0.13 for the second.

SG43 HEADNECK and U2OS BONE are within error of each other in surviving fraction: 1.07 ± 0.14 for the first, 1.02 ± 0.021 for the second.

HOSMNG BONE and CASKI CERVIX are within error of each other in surviving fraction: 0.969 ± 0.012 for the first, 0.957 ± 0.037 for the second.

SUM44 BREAST and MDAMB231 BREAST are within error of each other in surviving fraction: 1.03 ± 0.23 for the first, 0.978 ± 0.019 for the second.

CAL51 BREAST and MDAMB436 BREAST are within error of each other in surviving fraction: 0.931 ± 0.016 for the first, 0.937 ± 0.046 for the second.

First: HSSYII SYNOVIAL
Second: RDES SOFT TISSUE
The surviving fraction of the first is lower: 0.933 ± 0.045 for the first, 1.09 ± 0.053 for the second.

MDAMB157 BREAST and CHLA90 AUTONOMIC GANGLIA are within error of each other in surviving fraction: 0.981 ± 0.019 for the first, 0.951 ± 0.021 for the second.

CADOES1 SOFT TISSUE and SG31 HEADNECK are within error of each other in surviving fraction: 0.969 ± 0.035 for the first, 1.09 ± 0.14 for the second.

SCC47 HEADNECK and S68 BREAST are within error of each other in surviving fraction: 1.12 ± 0.088 for the first, 1.06 ± 0.15 for the second.

SNU475 LIVER and 22RV1 PROSTATE are within error of each other in surviving fraction: 1 ± 0.058 for the first, 1.07 ± 0.11 for the second.

Going from SG32 HEADNECK to SCC003 HEADNECK, the surviving fraction falls from 1.28 ± 0.12 to 1.02 ± 0.082.

First: JURKAT HAEMATOPOIETIC AND LYMPHOID TISSUE
Second: HT1080 SOFT TISSUE
The surviving fraction of the first is higher: 1.14 ± 0.028 for the first, 1.06 ± 0.016 for the second.

CAL120 BREAST and MCF7 BREAST are within error of each other in surviving fraction: 0.986 ± 0.039 for the first, 0.929 ± 0.055 for the second.

MFM223 BREAST and LNCAP PROSTATE are within error of each other in surviving fraction: 1.14 ± 0.21 for the first, 1.07 ± 0.039 for the second.

First: PCI30 HEADNECK
Second: OSHN BONE
The surviving fraction of the first is lower: 0.934 ± 0.056 for the first, 1.01 ± 0.014 for the second.

SG28 HEADNECK and HOS BONE are within error of each other in surviving fraction: 1.04 ± 0.056 for the first, 1.05 ± 0.025 for the second.

HUO3N1 BONE and BT20 BREAST are within error of each other in surviving fraction: 1 ± 0.047 for the first, 1.15 ± 0.11 for the second.

Going from SJSA1 BONE to JIMT1 BREAST, the surviving fraction falls from 1.19 ± 0.1 to 0.932 ± 0.0056.

HCC78 LUNG and NY BONE are within error of each other in surviving fraction: 1.01 ± 0.16 for the first, 0.98 ± 0.029 for the second.

NOS1 BONE was tested, and the surviving fraction was 1.01 ± 0.032.

Same assay, conditions: 1 nM; exposure time: 5 days

First: SCC36 HEADNECK
Second: OS25HAL BONE
The surviving fraction of the first is lower: 0.872 ± 0.052 for the first, 1.01 ± 0.056 for the second.

HCC1806 BREAST and HU09 BONE are within error of each other in surviving fraction: 1.02 ± 0.12 for the first, 0.966 ± 0.045 for the second.

SG43 HEADNECK and U2OS BONE are within error of each other in surviving fraction: 0.991 ± 0.21 for the first, 1.04 ± 0.025 for the second.

Compared with HOSMNG BONE, CASKI CERVIX is lower in surviving fraction: 1.03 ± 0.037 for the first, 0.928 ± 0.045 for the second.

SUM44 BREAST and MDAMB231 BREAST are within error of each other in surviving fraction: 0.958 ± 0.17 for the first, 0.947 ± 0.014 for the second.

CAL51 BREAST and MDAMB436 BREAST are within error of each other in surviving fraction: 0.918 ± 0.09 for the first, 0.921 ± 0.063 for the second.

HSSYII SYNOVIAL and RDES SOFT TISSUE are within error of each other in surviving fraction: 0.938 ± 0.078 for the first, 0.968 ± 0.032 for the second.

MDAMB157 BREAST and CHLA90 AUTONOMIC GANGLIA are within error of each other in surviving fraction: 0.969 ± 0.12 for the first, 0.946 ± 0.043 for the second.

CADOES1 SOFT TISSUE and SG31 HEADNECK are within error of each other in surviving fraction: 0.925 ± 0.057 for the first, 1.25 ± 0.32 for the second.

SCC47 HEADNECK and S68 BREAST are the same in surviving fraction: 1.14 ± 0.026 for the first, 1.14 ± 0.31 for the second.

SNU475 LIVER and 22RV1 PROSTATE are within error of each other in surviving fraction: 0.982 ± 0.018 for the first, 0.936 ± 0.068 for the second.

SG32 HEADNECK and SCC003 HEADNECK are within error of each other in surviving fraction: 0.974 ± 0.046 for the first, 1.05 ± 0.042 for the second.

“JURKAT HAEMATOPOIETIC AND LYMPHOID TISSUE” and HT1080 SOFT TISSUE are the same in surviving fraction: 1.09 ± 0.0023 for the first, 1.087 ± 0.0087 for the second.

CAL120 BREAST and MCF7 BREAST are within error of each other in surviving fraction: 0.991 ± 0.041 for the first, 0.907 ± 0.043 for the second.

MFM223 BREAST and LNCAP PROSTATE are within error of each other in surviving fraction: 1.12 ± 0.17 for the first, 1.17 ± 0.076 for the second.

Compared with PCI30 HEADNECK, OSHN BONE is lower in surviving fraction: 1.06 ± 0.029 for the first, 0.972 ± 0.029 for the second.

SG28 HEADNECK and HOS BONE are within error of each other in surviving fraction: 1.08 ± 0.056 for the first, 1.01 ± 0.017 for the second.

HUO3N1 BONE and BT20 BREAST are within error of each other in surviving fraction: 1.06 ± 0.02 for the first, 1.18 ± 0.11 for the second.

Going from SJSA1 BONE to JIMT1 BREAST, the surviving fraction falls from 1.6 ± 0.092 to 0.899 ± 0.021.

HCC78 LUNG and NY BONE are within error of each other in surviving fraction: 0.913 ± 0.1 for the first, 0.923 ± 0.032 for the second.

Test System NOS1 BONE has a surviving fraction of 1.01 ± 0.14.
